According to patent US20260258025A1, “INHIBITORS OF TDP-43 AND TAU AGGREGATION” (Aquinnah Pharmaceuticals, inc., priority 2023, published 2026):

These compounds were tested on TDP-43 aggregation (assay: TDP-43 aggregation assay in SY5Y TDP-43WT cells (high content imaging)). Settings: Homo sapiens, tetracycline induction 24 hrs, 1 hour compound pre-treatment, sodium arsenite 23 hrs, 8-point dose curve, percentage of cells with TDP-43 aggregates, read-out: IC50, Inhibition of TDP-43 Aggregation.
Type: cell-based
Protocol: Exemplary compounds disclosed herein were evaluated for efficacy in inhibiting TDP-43 inclusions cellular imaging-based assays.
The cellular model was in human neuroblastoma SH SYSY cells (ATCC, cat #: CRL-2266). The parent cell line was first engineered to stably express a tetracycline repressor protein (designated as TREx-SY5Y cells, customer cell line development by ThermoFisher). Wild-type human TDP-43 with a C-terminus eGFP tag was synthesized and cloned into pcDNA5/TO expression vector (ThermoFisher). The plasmid was transfected into TREx-SY5Y cells using Lipofectamine 2000 and hygromycin resistant colonies were selected. Expression of TDP-43WT::eGFP was examined under fluorescent microscopy and Western blot upon tetracycline induction. The clone that was used for TDP-43 aggregation assay is referred to as SY5Y TDP-43WT cells hereafter.
Compound inhibition of TDP-43 aggregation was tested in an 8-point dose curve in 96-well format. Briefly, TDP-43WT::eGFP expression was induced with […] for 24 hrs (SY5Y TDP-43WT cells). The cells were then pre-treated for 1 hour with exemplary compounds before adding sodium arsenite to a final concentration of […] and incubated for another 23 hrs. At the end of the treatment the cell monolayers were washed in PBS and fixed in 4% paraformaldehyde (PFA), diluted from 16% stock (Electron Microscopy Sciences cat: #15710-S). The inhibitory effect on TDP-43 aggregation was measured using CellInsight CX7 high content imager (ThermoFisher). The percentage of cells with TDP-43 aggregates was calculated based on the total number of cells identified by DAPI staining. An 8-point dose response curve was generated, and the IC50 for each compound tested was determined (Table 3).
In Table 3 below, A indicates an IC50 (nM)<500 nM, B indicates an IC50 (nM) 500 nM to <1000 nM, C indicates an IC50 (nM) 1000 nM to <2000 nM, D indicates an IC50 (nM) 2000 nM to <6000 nM, and E indicates an IC50 (nM) 6000 nM to ≤10000 nM.
`CCc1cc(-c2ccc(C3CCN(C4CCOCC4)CC3)c(F)c2)sc1C(=O)N1CC[C@H](N)C1` [Compound 291, (S)-(3-aminopyrrolidin-1-yl)(3-ethyl-5-(3-fluoro-4-(1-(tetrahydro-2H-pyran-4-yl)piperidin-4-yl)phenyl)thiophen-2-yl)methanone] showed an IC50 of less than 500 nM. With `COCCN1CCC(c2ccc(-c3cc(Cl)c(C(=O)N4CC[C@H](N)C4)s3)cc2)CC1` [Compound 258, (S)-(3-aminopyrrolidin-1-yl)(3-chloro-5-(4-(1-(2-methoxyethyl)piperidin-4-yl)phenyl)thiophen-2-yl)methanone] the IC50 was less than 500 nM. With `Cc1cc(-c2ccc(N3CCN(C)CC3)cc2)sc1C(=O)N1CC[C@H](N)C1` [Compound 185, (S)-(3-aminopyrrolidin-1-yl)(3-methyl-5-(4-(4-methylpiperazin-1-yl)phenyl)thiophen-2-yl)methanone] the IC50 was less than 500 nM. Compound `Cc1cc(-c2ccc3c(c2)CCCO3)sc1C(=O)N1CC[C@H](N)C1` [Compound 229] has an IC50 of 500 to 1000 nM. Compound `Cc1cc(-c2ccc(N3CCOCC3)cc2)sc1C(=O)N1CC[C@H](N)C1` [Compound 239] has an IC50 of 500 to 1000 nM. `N[C@H]1CCN(C(=O)c2sc(-c3ccc(C4CCN(C5CCOCC5)CC4)cc3)cc2Br)C1` [Compound 255, (S)-(3-aminopyrrolidin-1-yl)(3-bromo-5-(4-(1-(tetrahydro-2H-pyran-4-yl)piperidin-4-yl)phenyl)thiophen-2-yl)methanone] was tested, and the IC50 was less than 500 nM. `Cc1cc(-c2ccc(C3CCN(C4CC4)CC3)cc2)sc1C(=O)N1CC[C@H](N)C1` [Compound 175, (S)-(3-aminopyrrolidin-1-yl)(5-(4-(1-cyclopropylpiperidin-4-yl)phenyl)-3-methylthiophen-2-yl)methanone] gave an IC50 of less than 500 nM. For `Cc1cc(-c2ccc(C3COC3)cc2)sc1C(=O)N1CC[C@H](N)C1` [Compound 235], the IC50 was less than 500 nM. For `Cc1cc(-c2ccc(C3CCN(C4CCCCC4)CC3)c(F)c2)sc1C(=O)N1CC[C@H](N)C1` [Compound 277, (S)-(3-aminopyrrolidin-1-yl)(5-(4-(1-cyclohexylpiperidin-4-yl)-3-fluorophenyl)-3-methylthiophen-2-yl)methanone], the IC50 was less than 500 nM. Work on `Cc1cc(-c2ccc(C(C)C)cc2)sc1C(=O)N1CC[C@H](N)C1` [Compound 230] yielded an IC50 of 2000 to 6000 nM. `CCc1ccc(-c2sc(C(=O)N3CC[C@H](N)C3)c(C)c2C)cc1` [Compound 233] gave an IC50 of 6000 to 10000 nM. In the case of `Cc1cc(-c2ccc(COc3ccccc3)cc2)sc1C(=O)N1CC[C@H](N)C1` [Compound 204, (S)-(3-aminopyrrolidin-1-yl){3-methyl-5-[4-(phenoxymethyl)phenyl]thiophen-2-yl}methanone], the IC50 is reported as 6000 to 10000 nM. In the case of `Cc1cc(-c2ccc(C3CCCC3)cc2)sc1C(=O)N1CC[C@H](N)C1` [Compound 241], the IC50 is reported as 6000 to 10000 nM. `CNCc1ccc(-c2cc(C)c(C(=O)N3CC[C@H](N)C3)s2)cc1` [Compound 218] was tested, and the IC50 was less than 500 nM. `Cc1cc(-c2ccc3c(c2)COCC3)sc1C(=O)N1CC[C@H](N)C1` [Compound 195, (S)-(3-aminopyrrolidin-1-yl)[5-(isochroman-7-yl)-3-methylthiophen-2-yl]methanone] gave an IC50 of 1000 to 2000 nM. In the case of `Cc1cc(-c2ccc3c(c2)CCCC3N(C)C)sc1C(=O)N1CC[C@H](N)C1` (stereo partly drawn) [Compound 186, ((S)-3-aminopyrrolidin-1-yl)(5-(5-(dimethylamino)-5,6,7,8-tetrahydronaphthalen-2-yl)-3-methylthiophen-2-yl)methanone], the IC50 is reported as 2000 to 6000 nM. `CC(C)(O)CN1CCC(c2ccc(-c3cc(Cl)c(C(=O)N4CC[C@H](N)C4)s3)cc2F)CC1` [Compound 256, (S)-(3-aminopyrrolidin-1-yl)(3-chloro-5-(3-fluoro-4-(1-(2-hydroxy-2-methylpropyl)piperidin-4-yl)phenyl)thiophen-2-yl)methanone] was tested, and the IC50 was less than 500 nM. `Cc1cc(-c2ccc3ccccc3c2)sc1C(=O)N1CC[C@H](N)C1` [Compound 246] gave an IC50 of 6000 to 10000 nM. `Cc1cc(-c2ccc(COC3CCCCC3)cc2)sc1C(=O)N1CC[C@H](N)C1` [Compound 203, (S)-(3-aminopyrrolidin-1-yl){5-[4-(cyclohexyloxymethyl)phenyl]-3-methylthiophen-2-yl}methanone] was tested, and the IC50 was 2000 to 6000 nM. Compound `COCCN1CCC(c2ccc(-c3cc(C)c(C(=O)N4CC[C@H](N)C4)s3)cc2Cl)CC1` [Compound 248, (S)-(3-aminopyrrolidin-1-yl)(5-(3-chloro-4-(1-(2-methoxyethyl)piperidin-4-yl)phenyl)-3-methylthiophen-2-yl)methanone] has an IC50 of 500 to 1000 nM. Work on `N[C@H]1CCN(C(=O)c2sc(-c3ccc(C4CCN(C5CCOCC5)CC4)cc3)cc2Cl)C1` [Compound 294, (S)-(3-aminopyrrolidin-1-yl)(3-chloro-5-(4-(1-(tetrahydro-2H-pyran-4-yl)piperidin-4-yl)phenyl)thiophen-2-yl)methanone] yielded an IC50 of less than 500 nM. `N[C@H]1CCN(C(=O)c2sc(-c3ccc(C4CCN(C5CCOCC5)CC4)c(Cl)c3)cc2Cl)C1` [Compound 273, (S)-(3-aminopyrrolidin-1-yl)(3-chloro-5-(3-chloro-4-(1-(tetrahydro-2H-pyran-4-yl)piperidin-4-yl)phenyl)thiophen-2-yl)methanone] was tested, and the IC50 was less than 500 nM. With `C#CCOCCN1CCC(c2ccc(-c3cc(C)c(C(=O)N4CC[C@H](N)C4)s3)cc2)CC1` [Compound 288, (S)-(3-amino-pyrrolidin-1-yl)(3-methyl-5-(4-(1-(2-(prop-2-yn-1-yloxy)ethyl)piperidin-4-yl)phenyl)thiophen-2-yl) methanone] the IC50 was less than 500 nM. Compound `Cc1cc(-c2ccc(C3(N(C)C)CCC3)cc2)sc1C(=O)N1CC[C@H](N)C1` [Compound 187, (S)-(3-aminopyrrolidin-1-yl)(5-(4-(1-(dimethylamino)cyclobutyl)phenyl)-3-methylthiophen-2-yl)methanone] has an IC50 of 500 to 1000 nM. In the case of `Cc1cc(-c2ccc3c(c2)CCN(C)C3)sc1C(=O)N1CC[C@H](N)C1` [Compound 191, (S)-(3-aminopyrrolidin-1-yl)(3-methyl-5-(2-methyl-1,2,3,4-tetrahydroisoquinolin-6-yl)thiophen-2-yl)methanone], the IC50 is reported as less than 500 nM. In the case of `Cc1cc(-c2ccc(COC3CCOCC3)cc2)sc1C(=O)N1CC[C@H](N)C1` [Compound 202, (S)-(3-aminopyrrolidin-1-yl)(3-methyl-5-(4-((tetrahydro-2H-pyran-4-yloxy)methyl)phenyl)thiophen-2-yl)methanone], the IC50 is reported as 1000 to 2000 nM. `Cc1cc(-c2ccc3c(c2)N(C)CCC3)sc1C(=O)N1CC[C@H](N)C1` [Compound 196, (S)-(3-aminopyrrolidin-1-yl)(3-methyl-5-(1-methyl-1,2,3,4-tetrahydroquinolin-7-yl)thiophen-2-yl)methanone] was tested, and the IC50 was 6000 to 10000 nM. `COCCN1CCC(c2ccc(-c3cc(Cl)c(C(=O)N4CC[C@H](N)C4)s3)cc2F)CC1` [Compound 283, (S)-(3-aminopyrrolidin-1-yl)(3-chloro-5-(3-fluoro-4-(1-(2-methoxyethyl)piperidin-4-yl)phenyl)thiophen-2-yl)methanone] showed an IC50 of less than 500 nM. For `N[C@H]1CCN(C(=O)c2sc(-c3ccc(C4CCN(C5CCOC5)CC4)c(F)c3)cc2Cl)C1` (stereo partly drawn) [Compound 267, ((S)-3-aminopyrrolidin-1-yl)(3-chloro-5-(3-fluoro-4-(1-(tetrahydrofuran-3-yl)piperidin-4-yl)phenyl)thiophen-2-yl)methanone], the IC50 was less than 500 nM. With `C#CCOCCOCCN1CCC(c2ccc(-c3cc(C)c(C(=O)N4CC[C@H](N)C4)s3)cc2)CC1` [Compound 290, (S)-(3-aminopyrrolidin-1-yl)(3-methyl-5-(4-(1-(2-(2-(prop-2-yn-1-yloxy)ethoxy)ethyl)piperidin-4-yl)phenyl)thiophen-2-yl)methanone] the IC50 was less than 500 nM. Work on `COC(C)CN1CCC(c2ccc(-c3cc(Cl)c(C(=O)N4CC[C@H](N)C4)s3)cc2F)CC1` (stereo partly drawn) [Compound 250, ((S)-3-aminopyrrolidin-1-yl)(3-chloro-5-(3-fluoro-4-(1-(2-methoxypropyl)piperidin-4-yl)phenyl)thiophen-2-yl)methanone] yielded an IC50 of less than 500 nM. In the case of `Cc1cc(-c2ccc(C3CCN(C4CCOCC4)CC3)c(OC(F)(F)F)c2)sc1C(=O)N1CC[C@H](N)C1` [Compound 261, (S)-(3-aminopyrrolidin-1-yl)(3-methyl-5-(4-(1-(tetrahydro-2H-pyran-4-yl)piperidin-4-yl)-3-(trifluoromethoxy)phenyl)thiophen-2-yl)methanone], the IC50 is reported as 1000 to 2000 nM. `Cc1cc(-c2ccc(C3CCN(C4CNC4)CC3)cc2)sc1C(=O)N1CC[C@H](N)C1` [Compound 174, (S)-(3-aminopyrrolidin-1-yl)(5-(4-(1-(azetidin-3-yl)piperidin-4-yl)phenyl)-3-methylthiophen-2-yl)methanone] gave an IC50 of 1000 to 2000 nM.
